Laboratory results as given in paper PMC5977504, “Mucin architecture behind the immune response: design, evaluation and conformational analysis of an antitumor vaccine derived from an unnatural MUC1 fragment” (Chemical Science, 2015).

Assay: Degradation studies with human plasma (20% human serum)
Type: in vitro ADME
Conditions: 20% human serum (from human male AB plasma) in water, 37 °C, glycopeptide 0.5 mg·mL-1, sampled every hour, UPLC-micrOTOF-Q
Description: We examined then the stability of the unnatural MUC1 derivative in human plasma. To this end, we synthesized glycopeptides APDThr(α-D-GalNAc)RP and APDMeSer(α-D-GalNAc)RP (ESI ^†). The degradation of the glycopeptide containing threonine was faster (around 1.8-fold) compared to the unnatural compound. […]
an r−6 averaging. The equilibrium distance range was set to rexp − 0.2 Å ≤ rexp ≤ rexp + 0.2 Å.
Trajectories were run at 298 K, with a decay constant of 2000 ps and a time step of 1 fs.
The force constants rk2 and rk3 used in each case were 10 kcal·mol−1·Å−2. The overall simulation length for the simulations was 20 ns. The coordinates were saved each 1 ps, thus, obtaining MD trajectories of 20000 frames each. A convergence within the equilibrium distance range was obtained in the simulations. The analysis of the MD-tar trajectories has been carried out with the cpptraj modules of AMBER 12.
Degradation studies with human plasma.
Commercially available serum from human male AB plasma was used. […] Degradation of the peptides was determined every hour by using UPLC-micrOTOF-Q (column: ACQUITY UPLC BEH C18 1,7; diameter: 2.1 mm and length: 100 mm), eluting a mixture of 5 µL of the glycopeptide-serum solution in 795 µL of water and employing an isocratic method (70% H2O, 30% acetonitrile, temperature: […]

degradation, faster compared to the unnatural compound APDMeSer(α-D-GalNAc)RP: around 1.8 fold
SMILES: CC(=O)N[C@H]1[C@@H](O[C@H](C)[C@H](NC(=O)[C@H](CC(=O)O)NC(=O)[C@@H]2CCCN2C(=O)[C@H](C)N)C(=O)N[C@@H](CCCNC(=N)N)C(=O)N2CCC[C@H]2C(N)=O)O[C@H](CO)[C@H](O)[C@@H]1O [APDThr(α-D-GalNAc)RP]
